According to patent US7074789B2, “Kinase inhibitors” (Amgen Inc., priority 1999, dated 2006):
pIC50: −log10 of the molar value.

Columns and labels:
Assay type in all cases: biochemical
[1] = molecular target: T1, Src (Homo sapiens, UniProt P12931); experiment: Kinase inhibition assay (33P transfer), Src; details: Table 6, Src-1 kinase inhibition class
T1 construct: Kinases are expressed as either kinase domains or full length constructs; made in house
Method in brief: (§1)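 Steps: coat wells with poly(Glu,Tyr) 4:1 or poly(Arg,Ser) 3:1; add purified kinase, [33P]ATP and inhibitor; incubate; wash with 0.5% phosphoric acid; add liquid scintillant; count. IC50 corresponds to half-maximal reduction of bound 33P.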

[2] = molecular target: T2, Flt-1 (Homo sapiens, UniProt P17948); experiment: Kinase inhibition assay (33P transfer), Flt-1
T2 construct: Kinases are expressed as either kinase domains or full length constructs; made in house
Method in brief: as §1

[3] = molecular target: T3, PDGFRB (Homo sapiens, UniProt P09619); experiment: Kinase inhibition assay (33P transfer), PDGFRB; details: read-out: PDGFRB-1
T3 construct: Kinases are expressed as either kinase domains or full length constructs; made in house

[4] = molecular target: T4, EPHB4 (Homo sapiens, UniProt P54760); experiment: Kinase inhibition assay (33P transfer), EPHB4; details: for pIC50: read-out: EPHB4-1
T4 construct: Kinases are expressed as either kinase domains or full length constructs; made in house
T4 sequence (P54760 16-987): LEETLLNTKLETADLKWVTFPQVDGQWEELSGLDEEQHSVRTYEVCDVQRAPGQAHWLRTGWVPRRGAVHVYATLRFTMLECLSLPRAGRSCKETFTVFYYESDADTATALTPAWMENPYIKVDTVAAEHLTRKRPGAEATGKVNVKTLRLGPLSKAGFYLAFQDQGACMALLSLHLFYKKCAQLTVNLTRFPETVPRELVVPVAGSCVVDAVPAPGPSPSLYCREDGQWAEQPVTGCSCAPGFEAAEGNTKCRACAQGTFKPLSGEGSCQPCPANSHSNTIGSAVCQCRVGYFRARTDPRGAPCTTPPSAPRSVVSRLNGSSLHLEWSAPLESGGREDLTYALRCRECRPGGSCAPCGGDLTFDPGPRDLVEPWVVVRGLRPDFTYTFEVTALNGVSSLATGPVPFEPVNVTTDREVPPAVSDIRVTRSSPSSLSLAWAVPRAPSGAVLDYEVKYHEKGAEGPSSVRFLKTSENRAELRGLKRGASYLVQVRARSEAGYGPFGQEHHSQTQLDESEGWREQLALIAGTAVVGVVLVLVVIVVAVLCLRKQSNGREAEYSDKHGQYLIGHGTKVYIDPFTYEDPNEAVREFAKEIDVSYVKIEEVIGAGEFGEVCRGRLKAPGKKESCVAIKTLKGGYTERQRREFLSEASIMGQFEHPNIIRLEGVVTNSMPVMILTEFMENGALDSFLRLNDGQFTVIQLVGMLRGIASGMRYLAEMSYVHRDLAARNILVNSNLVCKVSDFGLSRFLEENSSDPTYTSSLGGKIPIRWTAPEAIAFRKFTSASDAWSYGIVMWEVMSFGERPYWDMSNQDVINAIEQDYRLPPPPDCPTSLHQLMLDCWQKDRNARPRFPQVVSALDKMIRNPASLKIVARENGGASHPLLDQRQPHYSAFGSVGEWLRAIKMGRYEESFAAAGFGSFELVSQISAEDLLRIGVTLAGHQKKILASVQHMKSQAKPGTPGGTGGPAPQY

[5] = molecular target: T5, Ret-1 (Homo sapiens, UniProt P07949); experiment: Kinase inhibition assay (33P transfer), Ret; details: Table 6, Ret-1 kinase inhibition class
T5 construct: Kinases are expressed as either kinase domains or full length constructs; made in house

[6] = molecular target: T6, ErbB2 (Homo sapiens, UniProt P04626); experiment: Kinase inhibition assay (33P transfer), ErbB2; details: read-out: ErbB2-2
T6 construct: Kinases are expressed as either kinase domains or full length constructs; made in house
Method in brief: as §1

T5 sequence (P07949 29-1114): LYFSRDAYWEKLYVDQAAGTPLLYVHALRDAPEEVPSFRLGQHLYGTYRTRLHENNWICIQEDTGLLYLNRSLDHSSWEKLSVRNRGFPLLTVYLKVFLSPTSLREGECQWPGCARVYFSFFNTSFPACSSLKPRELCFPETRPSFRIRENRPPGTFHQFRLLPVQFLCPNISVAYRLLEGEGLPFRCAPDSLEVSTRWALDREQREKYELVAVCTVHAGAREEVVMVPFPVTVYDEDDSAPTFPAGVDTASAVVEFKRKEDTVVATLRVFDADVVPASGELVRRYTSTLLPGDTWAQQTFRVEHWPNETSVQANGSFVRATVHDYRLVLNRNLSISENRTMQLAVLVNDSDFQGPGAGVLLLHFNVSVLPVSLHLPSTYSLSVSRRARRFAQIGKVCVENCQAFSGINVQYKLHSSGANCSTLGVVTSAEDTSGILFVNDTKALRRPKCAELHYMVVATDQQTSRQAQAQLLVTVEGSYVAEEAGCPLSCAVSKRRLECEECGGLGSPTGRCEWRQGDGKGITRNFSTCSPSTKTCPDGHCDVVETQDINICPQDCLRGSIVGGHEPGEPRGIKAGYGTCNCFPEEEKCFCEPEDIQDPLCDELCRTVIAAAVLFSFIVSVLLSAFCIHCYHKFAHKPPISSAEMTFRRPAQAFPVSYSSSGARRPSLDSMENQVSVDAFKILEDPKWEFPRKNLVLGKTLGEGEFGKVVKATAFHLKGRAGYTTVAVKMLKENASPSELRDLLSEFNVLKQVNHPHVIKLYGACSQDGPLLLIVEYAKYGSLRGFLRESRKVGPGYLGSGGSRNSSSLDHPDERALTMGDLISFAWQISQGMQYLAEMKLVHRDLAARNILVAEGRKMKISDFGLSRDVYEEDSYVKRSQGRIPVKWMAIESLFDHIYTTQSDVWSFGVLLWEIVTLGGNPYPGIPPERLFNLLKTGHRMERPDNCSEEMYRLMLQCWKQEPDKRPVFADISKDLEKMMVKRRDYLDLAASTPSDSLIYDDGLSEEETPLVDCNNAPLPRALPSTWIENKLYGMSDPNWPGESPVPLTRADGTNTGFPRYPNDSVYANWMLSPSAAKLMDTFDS
T1 sequence (P12931 whole entry, species assumed, the tested form may be a part): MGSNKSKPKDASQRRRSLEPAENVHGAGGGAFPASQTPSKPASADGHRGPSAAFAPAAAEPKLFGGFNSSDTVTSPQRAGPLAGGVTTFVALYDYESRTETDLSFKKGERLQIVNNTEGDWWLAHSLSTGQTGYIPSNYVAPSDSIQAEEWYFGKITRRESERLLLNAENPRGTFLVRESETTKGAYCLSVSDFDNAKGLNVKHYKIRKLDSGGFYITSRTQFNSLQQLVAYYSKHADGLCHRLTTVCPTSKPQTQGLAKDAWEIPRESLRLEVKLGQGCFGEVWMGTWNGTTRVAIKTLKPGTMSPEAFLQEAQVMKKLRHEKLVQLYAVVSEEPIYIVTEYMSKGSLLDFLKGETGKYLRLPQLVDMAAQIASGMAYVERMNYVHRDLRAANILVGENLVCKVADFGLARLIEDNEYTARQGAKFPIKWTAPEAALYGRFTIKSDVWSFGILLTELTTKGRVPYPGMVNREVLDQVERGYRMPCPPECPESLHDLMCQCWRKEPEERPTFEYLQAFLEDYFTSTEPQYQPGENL
T3 sequence (P09619 33-1106, species assumed): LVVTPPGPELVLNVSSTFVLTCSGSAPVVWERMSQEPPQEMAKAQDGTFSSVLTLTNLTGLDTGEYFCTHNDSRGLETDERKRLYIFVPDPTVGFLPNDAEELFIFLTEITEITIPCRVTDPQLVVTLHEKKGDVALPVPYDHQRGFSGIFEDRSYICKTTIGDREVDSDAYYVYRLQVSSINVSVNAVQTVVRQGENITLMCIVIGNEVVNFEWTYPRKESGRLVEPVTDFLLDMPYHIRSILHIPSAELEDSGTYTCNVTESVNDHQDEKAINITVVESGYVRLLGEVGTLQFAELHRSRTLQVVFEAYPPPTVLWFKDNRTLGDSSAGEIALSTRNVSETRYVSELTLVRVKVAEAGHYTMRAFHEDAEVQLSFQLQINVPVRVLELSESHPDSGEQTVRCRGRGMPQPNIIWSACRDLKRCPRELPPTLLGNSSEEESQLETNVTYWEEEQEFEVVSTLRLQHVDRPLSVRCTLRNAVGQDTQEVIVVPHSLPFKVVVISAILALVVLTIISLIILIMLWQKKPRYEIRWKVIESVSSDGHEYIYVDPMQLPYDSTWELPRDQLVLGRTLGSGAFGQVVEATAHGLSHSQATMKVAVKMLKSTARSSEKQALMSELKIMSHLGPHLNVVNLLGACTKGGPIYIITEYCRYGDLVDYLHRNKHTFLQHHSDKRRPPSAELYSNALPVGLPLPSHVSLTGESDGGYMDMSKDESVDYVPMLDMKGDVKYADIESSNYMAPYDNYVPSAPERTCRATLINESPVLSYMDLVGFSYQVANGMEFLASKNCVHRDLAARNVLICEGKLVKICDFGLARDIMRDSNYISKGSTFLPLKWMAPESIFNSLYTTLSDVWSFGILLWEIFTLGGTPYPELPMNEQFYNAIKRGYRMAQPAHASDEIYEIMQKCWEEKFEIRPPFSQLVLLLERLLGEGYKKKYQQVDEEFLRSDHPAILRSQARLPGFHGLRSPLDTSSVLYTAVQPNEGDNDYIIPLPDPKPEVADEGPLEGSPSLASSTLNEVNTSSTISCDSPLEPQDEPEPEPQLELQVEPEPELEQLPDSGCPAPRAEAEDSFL
T2 sequence (P17948 27-1338, species assumed): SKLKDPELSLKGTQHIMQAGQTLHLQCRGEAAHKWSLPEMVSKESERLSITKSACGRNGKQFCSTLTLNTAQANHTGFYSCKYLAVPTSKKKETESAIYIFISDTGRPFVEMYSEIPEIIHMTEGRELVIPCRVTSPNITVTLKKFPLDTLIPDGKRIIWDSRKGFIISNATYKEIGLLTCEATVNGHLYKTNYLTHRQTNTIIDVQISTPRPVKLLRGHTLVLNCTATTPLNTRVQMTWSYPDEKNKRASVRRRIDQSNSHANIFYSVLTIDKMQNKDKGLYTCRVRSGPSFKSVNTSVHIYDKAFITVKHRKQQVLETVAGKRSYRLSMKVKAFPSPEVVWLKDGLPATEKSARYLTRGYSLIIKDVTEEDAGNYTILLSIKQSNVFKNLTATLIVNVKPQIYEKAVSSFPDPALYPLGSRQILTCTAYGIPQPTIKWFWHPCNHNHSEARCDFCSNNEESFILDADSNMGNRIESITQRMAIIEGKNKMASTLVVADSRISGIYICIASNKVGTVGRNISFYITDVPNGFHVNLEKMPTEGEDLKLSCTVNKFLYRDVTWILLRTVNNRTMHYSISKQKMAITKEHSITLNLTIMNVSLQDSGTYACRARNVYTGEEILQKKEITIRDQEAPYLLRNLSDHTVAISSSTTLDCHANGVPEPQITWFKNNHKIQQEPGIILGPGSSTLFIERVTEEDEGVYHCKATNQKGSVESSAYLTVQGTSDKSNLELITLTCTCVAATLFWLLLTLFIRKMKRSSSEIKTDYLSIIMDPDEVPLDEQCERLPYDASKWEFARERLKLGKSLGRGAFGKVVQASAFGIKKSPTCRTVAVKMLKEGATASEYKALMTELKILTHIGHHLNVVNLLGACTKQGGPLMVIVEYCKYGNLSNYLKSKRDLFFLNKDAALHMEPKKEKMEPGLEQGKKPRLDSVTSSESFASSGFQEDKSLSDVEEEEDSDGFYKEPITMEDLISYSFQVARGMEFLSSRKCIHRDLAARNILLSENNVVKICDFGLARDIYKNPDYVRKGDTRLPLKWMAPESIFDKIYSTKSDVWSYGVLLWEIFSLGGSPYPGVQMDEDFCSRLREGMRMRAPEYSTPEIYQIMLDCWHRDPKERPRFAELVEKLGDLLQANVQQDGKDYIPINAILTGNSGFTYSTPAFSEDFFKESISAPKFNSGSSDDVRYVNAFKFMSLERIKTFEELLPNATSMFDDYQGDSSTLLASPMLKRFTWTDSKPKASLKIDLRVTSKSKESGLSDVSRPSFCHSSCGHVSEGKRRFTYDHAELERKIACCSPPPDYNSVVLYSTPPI

SMILES | pIC50 [1] | pIC50 [2] | pIC50 [3] | pIC50 [4] | pIC50 [5] | pIC50 [6] | Src-1 [1] | EPHB4-1 [4]
CCOc1ccc(Nc2ncnc(Nc3ccc(C)c(O)c3)n2)cc1OCC [Compound 121] | > 5.98 | > 5.98 | > 5.98 | < 4.93 | > 5.98 | – | – | –
COCCOc1ccc(Nc2ncnc(Nc3ccc(C)c(O)c3)n2)cc1OC [Compound 123] | > 6.00 | > 6.00 | > 6.00 | < 4.95 | > 6.00 | – | – | –
COCCOc1ccc(Nc2ncnc(-n3c(N)nc4ccccc43)n2)cc1OCCOC [Compound 302] | < 5.00 | < 5.00 | < 5.00 | < 5.00 | < 5.00 | – | – | –
COc1ccc(Nc2ccc(Nc3ncnc(Nc4cc(OC)c(OC)c(OC)c4)n3)cc2)cc1 [Compound 922] | 5.30 to 6.07 | 5.13 to 5.30 | 5.30 to 6.07 | 5.13 to 5.30 | 5.30 to 6.07 | – | – | –
COc1cc(Nc2ncnc(N(CC(=O)O)c3ccc4c(c3)OCO4)n2)cc(OC)c1OC [Compound 319] | < 5.01 | < 5.01 | < 5.01 | < 5.01 | < 5.01 | – | – | –
COc1ccc(Nc2ncnc(Nc3ccc(Oc4ccccc4)cc3)n2)cc1OC [Compound 929] | – | < 4.97 | < 4.97 | < 4.97 | 5.07 to 5.24 | – | – | –
COc1ccc(Nc2ncnc(Nc3cc(OC)c(OC)c(OC)c3)n2)cn1 [Compound 28] | – | – | – | – | – | – | B (B>0.4 and <2.4 ug/mL) | B (B>0.4 and <2.4 ug/mL)
CCOc1ccc(Nc2ncnc(Nc3ccc(OCc4ccccc4)cc3)n2)cc1OCC [Compound 170] | < 5.01 | < 5.01 | < 5.01 | 5.12 to 5.28 | – | – | – | –
COc1ccc(Nc2ncnc(Nc3ccc(N(C)C)cc3)n2)cc1OC [Compound 114] | – | < 4.91 | < 4.91 | < 4.91 | 5.18 to 5.96 | – | – | –
COc1ccc(Nc2ncnc(Nc3cccc(C)c3)n2)cc1OC [Compound 108] | 5.15 to 5.93 | < 4.87 | 5.15 to 5.93 | < 4.87 | – | – | – | –
Cc1cccc(Nc2ncnc(Nc3cccc(Br)c3)n2)c1 [Compound 109] | – | – | < 4.90 | < 4.90 | – | 5.01 to 5.17 | – | –
COc1cc(Nc2ncnc(Nc3cc(OC)c(OC)c(OC)c3)n2)cc(OC)n1 [Compound 253] | > 6.02 | – | – | < 4.96 | – | – | – | –

Continued, in another order:

pIC50 [1] | pIC50 [2] | pIC50 [3] | pIC50 [4] | pIC50 [5] | pIC50 [6] | SMILES | Src-1 [1] | EPHB4-1 [4]
< 4.97 | < 4.97 | < 4.97 | < 4.97 | < 4.97 | – | COc1cc(Nc2ncnc(Nc3nnc(-c4ccccc4)[nH]3)n2)cc(OC)c1OC [Compound 311] | – | –
4.92 to 5.03 | 5.20 to 5.98 | > 5.98 | < 4.92 | 5.03 to 5.20 | – | COc1cc(Nc2ncnc(-n3ncc4ccccc43)n2)cc(OC)c1OC [Compound 240] | – | –
5.25 to 6.03 | > 6.03 | > 6.03 | 5.25 to 6.03 | > 6.03 | – | COc1cc(Nc2ncnc(N3c4ccc(F)cc4CCC3C)n2)cc(OC)c1OC (stereo not drawn) [Compound 298] | – | –
5.20 to 5.98 | > 5.98 | > 5.98 | 5.04 to 5.20 | < 4.93 | – | COc1cc(Nc2ncnc(N3CCc4ccccc43)n2)cc(OC)c1OC [Compound 184] | – | –
– | > 6.00 | > 6.00 | 5.22 to 6.00 | 5.22 to 6.00 | – | COc1ccc(N(C)c2ncnc(Nc3cc(OC)c(OC)c(OC)c3)n2)cc1 [Compound 106] | – | –
– | 5.16 to 5.94 | < 4.89 | < 4.89 | – | – | COc1cc(Nc2ncnc(N3CCCCC3)n2)cc(OC)c1OC [Compound 207] | – | –
5.25 to 6.03 | 5.25 to 6.03 | > 6.03 | 5.25 to 6.03 | – | – | C=CCN(c1ccc(Cl)cc1)c1ncnc(Nc2cc(OC)c(OC)c(OC)c2)n1 [Compound 972] | – | –
> 6.07 | 5.29 to 6.07 | > 6.07 | > 6.07 | – | – | COc1cc(Nc2ncnc(Nc3ccc(Br)c(Cl)c3)n2)cc(OC)c1OC [Compound 936] | – | –
> 5.98 | 5.20 to 5.98 | > 5.98 | 5.20 to 5.98 | – | – | COc1cc(Nc2ncnc(Nc3ccc(C)c(N)c3)n2)cc(OC)c1OC [Compound 935] | – | –
